# Experimental data published in patent publication US7732449B2, “Inhibitors of cathepsin S” (IRM LLC, priority 2003, dated 2010).
# Where two headings read alike, the source gives them in different places.
# Assays:
# Type in all cases: biochemical
# [1] = target: T1, Cathepsin K (Homo sapiens, UniProt P43235); assay: Cathepsin K inhibition, fluorogenic peptide substrate kinetic assay (selectivity); conditions: ratio of cathepsin K inhibition constant to cathepsin S inhibition constant
# T1 sequence (P43235 115-329): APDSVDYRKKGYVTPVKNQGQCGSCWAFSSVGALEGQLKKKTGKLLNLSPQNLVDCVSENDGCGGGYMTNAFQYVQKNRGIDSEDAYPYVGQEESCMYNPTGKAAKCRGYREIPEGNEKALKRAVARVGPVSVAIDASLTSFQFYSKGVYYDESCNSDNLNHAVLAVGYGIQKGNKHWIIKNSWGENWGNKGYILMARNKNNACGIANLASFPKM
# [2] = target: Cathepsin L (Homo sapiens, UniProt P07711); assay: Cathepsin L inhibition, fluorogenic peptide substrate kinetic assay (selectivity); conditions: ratio of cathepsin L inhibition constant to cathepsin S inhibition constant
# [3] = target: Cathepsin S (Homo sapiens, UniProt P25774); assay: Cathepsin S inhibition, fluorogenic peptide substrate kinetic assay;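 further: cleavage rate of a coumarin-labelled peptide substrate (50 µM) read as fluorescence increase at Ex 380 nm and Em 450 nm, relative to inhibitor-free control reactions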
# [4] = target: Cathepsin B (Homo sapiens, UniProt P07858); assay: Cathepsin B inhibition, fluorogenic peptide substrate kinetic assay (selectivity); conditions: ratio of cathepsin B inhibition constant to cathepsin S inhibition constant;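 further: value is the cathepsin B inhibition constant divided by the cathepsin S one, each from kinetic fluorescence readings (ex 380 nm, em 450 nm) of a 10 µM coumarin peptide substrate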
# [5] = Cathepsin S inhibition constant, pH5.5, 20 minutes preincubation at room temperature, read-out: Ki Cat. S
# Sequence of Cathepsin L (P07711 114-333, species assumed): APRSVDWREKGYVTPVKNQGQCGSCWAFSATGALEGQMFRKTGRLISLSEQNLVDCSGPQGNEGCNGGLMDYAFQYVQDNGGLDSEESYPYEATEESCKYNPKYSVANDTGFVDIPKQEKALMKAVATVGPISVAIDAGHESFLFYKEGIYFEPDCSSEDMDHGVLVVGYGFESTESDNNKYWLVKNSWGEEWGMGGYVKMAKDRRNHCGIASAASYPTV
# Sequence of Cathepsin S (P25774 115-331, species assumed): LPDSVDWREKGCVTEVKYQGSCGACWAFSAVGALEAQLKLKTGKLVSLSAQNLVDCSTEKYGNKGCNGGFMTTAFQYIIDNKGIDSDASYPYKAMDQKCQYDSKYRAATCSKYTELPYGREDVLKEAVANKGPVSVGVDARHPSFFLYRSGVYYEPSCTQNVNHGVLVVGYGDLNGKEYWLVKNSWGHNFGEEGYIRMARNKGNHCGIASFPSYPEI
SMILES,Selectivity for Cat. S over Cat. K [1],Selectivity for Cat. S over Cat. L [2],"Ki [3, 5] [nM]",Selectivity for Cat. S over Cat. B [4],Ki [3] [nM]
"C[C@@H](CNc1ccc(OC(F)(F)F)cc1)NC(=O)[C@@H](CC(=O)N1CCSCC1)CC1CCCCC1 [Example 51, 2-(R)-Cyclohexylmethyl-N-[1-(S)-methyl-2-(4-trifluoromethoxy-phenylamino)-ethyl]-4-oxo-4-thiomorpholin-4-yl-butyramide]","++ (++, >100)","+ (+, >10)",< 100,"+++ (+++, >1000)",–
"CC(=O)N1CCN(C(=O)C[C@@H](CC2CCCCC2)C(=O)N[C@@H](C)CNc2ccc(OC(F)(F)F)cc2)CC1 [Example 52, 4-(4-Acetyl-piperazin-1-yl)-2-(R)-cyclohexylmethyl-N-[1-(S)-methyl-2-(4-trifluoromethoxy-phenylamino)-ethyl]-4-oxo-butyramide]","+ (+, >10)","++ (++, >100)",100 to 1000,"++ (++, >100)",–
"COc1ccc([C@H](CC(=O)N2CCOCC2)C(=O)N[C@H](CNc2ccc(OC(F)(F)F)cc2)C(C)C)cc1 [Example 53, 2-(S)-(4-Methoxy-phenyl)-N-{2-methyl-1-(S)-[(4-trifluoromethoxy-phenylamino)-methyl]-propyl}-4-morpholin-4-yl-4-oxo-butyramide]","++ (++, >100)","++ (++, >100)",–,"++ (++, >100)",100 to 1000
"C[C@@H](CN1CC(C)(C)c2cc(F)ccc21)NC(=O)[C@@H](CC(=O)N1CCOCC1)CC1CCCCC1 [Example 54, 2-(R)-Cyclohexylmethyl-N-[2-(5-fluoro-3,3-dimethyl-2,3-dihydro-indol-1-yl)-1-(S)-methyl-ethyl]-4-morpholin-4-yl-4-oxo-butyramide]","+++ (+++, >1000)","++ (++, >100)",< 100,"+++ (+++, >1000)",–
"CC(C)[C@@H](CNc1ccc(OC(F)(F)F)cc1)NC(=O)[C@@H](CC(=O)N1CCOCC1)c1ccc(C(F)(F)F)cc1 [Example 55, N-{2-Methyl-1-(S)-[(4-trifluoromethoxy-phenylamino)-methyl]-propyl}-4-morpholin-4-yl-4-oxo-2-(S)-(4-trifluoromethyl-phenyl)-butyramide]","+++ (+++, >1000)","++ (++, >100)",–,"++ (++, >100)",100 to 1000
"Cc1ccc([C@H](CC(=O)N2CCOCC2)C(=O)N[C@H](CNc2ccc(OC(F)(F)F)cc2)C(C)C)cc1 [Example 57, N-{2-Methyl-1-(S)-[(4-trifluoromethoxy-phenylamino)-methyl]-propyl}-4-morpholin-4-yl-4-oxo-2-(S)-p-tolyl-butyramide]","++ (++, >100)","++ (++, >100)",–,"++ (++, >100)",100 to 1000
"C[C@@H](CNc1ccc(OC(F)(F)F)cc1)NC(=O)[C@@H](CC(=O)N1CCS(=O)(=O)CC1)CC1CCCCC1 [Example 58, 2-(R)-Cyclohexylmethyl-4-(1,1-dioxo-thiomorpholin-4-yl)-N-[1-(S)-methyl-2-(4-trifluoromethoxy-phenylamino)-ethyl]-4-oxo-butyramide]","++ (++, >100)","+ (+, >10)",100 to 1000,"++ (++, >100)",–
"CCC1(O)CCCC(C[C@H](CC(=O)N2CCOCC2)C(=O)N[C@@H](C)CNc2ccc(OC(F)(F)F)cc2)C1 (stereo partly drawn) [Example 59, 2-(R)-(3-Ethyl-3-hydroxy-cyclohexylmethyl)-N-[1-(S)-methyl-2-(4-trifluoromethoxy-phenylamino)-ethyl]-4-morpholin-4-yl-4-oxo-butyramide]","+ (+, >10)","+ (+, >10)",1000 to 10000,"+ (+, >10)",–
"C[C@@H](CNc1ccc(OC(F)(F)F)cc1)NC(=O)[C@@H](CC(=O)N1CCOCC1)c1ccc(C(F)(F)F)cc1 [Example 60, N-[1-(S)-Methyl-2-(4-trifluoromethoxy-phenylamino)-ethyl]-4-morpholin-4-yl-4-oxo-2-(S)-(4-trifluoromethyl-phenyl)-butyramide]","+ (+, >10)","+ (+, >10)",–,"+ (+, >10)",1000 to 10000
"C[C@@H](CNc1ccc(OC(F)(F)F)cc1)NC(=O)[C@@H](CC(=O)N1CCOCC1)c1ccccc1 [Example 61, N-[1-(S)-Methyl-2-(4-trifluoromethoxy-phenylamino)-ethyl]-4-morpholin-4-yl-4-oxo-2-(S)-phenyl-butyramide]","+ (+, >10)","+ (+, >10)",1000 to 10000,"+ (+, >10)",–
"C[C@@H](CNc1ccc(OC(F)(F)F)cc1)NC(=O)[C@@H](CC(=O)N1CCOCC1)c1ccc(F)cc1 [Example 62, 2-(S)-(4-Fluoro-phenyl)-N-[1-(S)-methyl-2-(4-trifluoromethoxy-phenylamino)-ethyl]-4-morpholin-4-yl-4-oxo-butyramide]","++ (++, >100)","++ (++, >100)",100 to 1000,"++ (++, >100)",–
"COc1ccc([C@H](CC(=O)N2CCOCC2)C(=O)N[C@@H](C)CNc2ccc(OC(F)(F)F)cc2)cc1 [Example 63, 2-(S)-(4-Methoxy-phenyl)-N-[1-(S)-methyl-2-(4-trifluoromethoxy-phenylamino)-ethyl]-4-morpholin-4-yl-4-oxo-butyramide]","++ (++, >100)","++ (++, >100)",100 to 1000,"++ (++, >100)",–
"COc1ccc(NC[C@@H](NC(=O)[C@@H](CC(=O)N2CCOCC2)c2ccc(F)cc2)C(C)C)cn1 [Example 64, 2-(S)-(4-Fluoro-phenyl)-N-{1-(S)-[(6-methoxy-pyridin-3-ylamino)-methyl]-2-methyl-propyl}-4-morpholin-4-yl-4-oxo-butyramide]","+ (+, >10)","+ (+, >10)",100 to 1000,"++ (++, >100)",–
"C[C@@H](CNc1ccc(OC(F)(F)F)cc1)NC(=O)[C@@H](CC(=O)N1CCOCC1)CC1CCC2(CC1)CC2 [Example 65, N-[1-(S)-Methyl-2-(4-trifluoromethoxy-phenylamino)-ethyl]-4-morpholin-4-yl-4-oxo-2-(R)-spiro[2.5]oct-6-ylmethyl-butyramide]","++ (++, >100)","++ (++, >100)",100 to 1000,"++ (++, >100)",–
"CC(C)[C@@H](CNc1cccc(S(C)(=O)=O)c1)NC(=O)[C@@H](CC(=O)N1CCOCC1)c1ccc(F)cc1 [Example 67, 2-(S)-(4-Fluoro-phenyl)-N-{1-(S)-[(3-methanesulfonyl-phenylamino)-methyl]-2-methyl-propyl}-4-morpholin-4-yl-4-oxo-butyramide]","+ (+, >10)","+ (+, >10)",1000 to 10000,"+ (+, >10)",–
"CC(C)[C@@H](CN1CC(C)(C)c2cc(F)ccc21)NC(=O)[C@@H](CC(=O)N1CCOCC1)c1ccc(C(F)(F)F)cc1 [Example 68, N-[1-(S)-(5-Fluoro-3,3-dimethyl-2,3-dihydro-indol-1-ylmethyl)-2-methyl-propyl]-4-morpholin-4-yl-4-oxo-2-(S)-(4-trifluoromethyl-phenyl)-butyramide]","++ (++, >100)","+++ (+++, >1000)",< 100,"+++ (+++, >1000)",–
"CC1(C)CN(C[C@@H](NC(=O)[C@@H](CC(=O)N2CCOCC2)c2ccc(C(F)(F)F)cc2)C2CC2)c2ccc(F)cc21 [Example 69, N-[1-(S)-Cyclopropyl-2-(5-fluoro-3,3-dimethyl-2,3-dihydro-indol-1-yl)-ethyl]-4-morpholin-4-yl-4-oxo-2-(S)-(4-trifluoromethyl-phenyl)-butyramide]","+ (+, >10)","++ (++, >100)",100 to 1000,"++ (++, >100)",–
